From US20240110183A1, “ANTIFIBROTIC AND ANTITUMOR ACTIVITY OF CD63 BLOCKADE” (The Board of Trustees of the Leland Stanford Junior …, priority 2020, published 2024) come the findings set out here.

This assay deals with HK2, NRK52E, NRK49F cell lines. Put plainly: RT-qPCR analysis of kidney cell lines treated with TGFβ1. The class given is cell-based, human, rat. Particulars: TGFβ1 10 ng/ml, FIG. 21. As for the experimental part: FIG. 21A-FIG. 21C. Activation of TGFβ1 signaling pathway elevated the expression of fibrotic related proteins in 3 kidney cell lines. (FIG. 21 FIG. 21A) Human epithelial (HK2), (FIG. 21 B) rat epithelial (NRK52E), (FIG. 21C) rat fibroblast (NRK49F) cell lines were treated with TGFβ1 (10 ng/ml) or TGFβ1 (10 ng/ml) plus LY2109761 (2.5 μM) for indicated times in hours.
Activation of TGFβ1 signaling pathway elevated the expression of fibrotic related proteins in 3 kidney cell lines. Human epithelial (HK2), rat epithelial (NRK52E), rat fibroblast (NRK49F) cell lines were treated with TGFβ1 (10 ng/ml) or TGFβ1 (10 ng/ml) plus LY2109761 (2.5 μM) for times indicated in hours as shown in FIG. 21 A-C.

As for “TGFβ1: TGFβ1 (10 ng/ml) used to activate the TGFβ1 signaling pathway in kidney cell lines”, the “expression of CD63 and its known interactor TIMP1” value (HK2, NRK52E, NRK49F) is recorded as “not increased”. In addition, the “expression of fibrotic related proteins” value (human epithelial (HK2), rat epithelial (NRK52E), rat fibroblast (NRK49F)) was “elevated”.
